The supplement of paper PMC10307832

Key:
Experiment in all cases: relative viability (nuclei count vs DMSO), 5 days (fraction); higher = more cells survive
BI-2536 + Vorinostat = compound: CC[C@@H]1C(=O)N(C)c2cnc(Nc3ccc(C(=O)NC4CCN(C)CC4)cc3OC)nc2N1C1CCCC1 [BI-2536] + O=C(CCCCCCC(=O)Nc1ccccc1)NO [Vorinostat] (partner 1 µM)
Summary of the method: (§1)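 Cells from lung cancer lines were seeded into 1536-well plates and, one day later, dosed by pin tool. Treatments were either a single drug or a fixed dose of an anchor drug with five library-drug doses (not always all listed) in √10 steps. After 5 days, nuclei were stained in a one-step fixation (final 0.05% Triton X-100, 1% formaldehyde, 1 ug/ml Hoechst) and counted on 4× images, and relative viability is the treated-to-vehicle nuclei ratio, as the median of duplicate plates.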

[1] = compound: CC1CC(=O)N(C2=CN=C(N=C2N1C3CCCC3)NC4=C(C=C(C=C4)C(=O)NC5CCN(CC5)C)OC)C [NPK76-II-72-1] + N=C(N)NC(=N)NCCc1ccccc1 [Phenformin] (partner 250 µM)
Summary of the method: as §1

[2] = compound: CC1CC(=O)N(C2=CN=C(N=C2N1C3CCCC3)NC4=C(C=C(C=C4)C(=O)NC5CCN(CC5)C)OC)C [NPK76-II-72-1] + CC(=O)Nc1cccc(-n2c(=O)n(C3CC3)c(=O)c3c(Nc4ccc(I)cc4F)n(C)c(=O)c(C)c32)c1 [Trametinib] (partner 0.02 µM)
Summary of the method: as §1

[3] = compound: CC1CC(=O)N(C2=CN=C(N=C2N1C3CCCC3)NC4=C(C=C(C=C4)C(=O)NC5CCN(CC5)C)OC)C [NPK76-II-72-1] + Cc1nc(NC(=O)N2CCC[C@H]2C(N)=O)sc1-c1ccnc(C(C)(C)C(F)(F)F)c1 [Alpelisib] (partner 2 µM)
Summary of the method: as §1

Row | Cell Line | relative viability (BI-2536 + Vorinostat; first compound 0.01 µM) | relative viability (BI-2536 + Vorinostat; first compound 0.03162 µM) | relative viability (BI-2536 + Vorinostat; first compound 0.1 µM) | relative viability (BI-2536 + Vorinostat; first compound 0.3162 µM) | relative viability (BI-2536 + Vorinostat; first compound 1 µM) | relative viability ([1]; first compound 0.01 µM) | relative viability ([1]; first compound 0.03162 µM) | relative viability ([1]; first compound 0.1 µM) | relative viability ([1]; first compound 0.3162 µM) | relative viability ([1]; first compound 1 µM) | relative viability ([2]; first compound 0.01 µM) | relative viability ([2]; first compound 0.03162 µM) | relative viability ([2]; first compound 0.1 µM) | relative viability ([2]; first compound 0.3162 µM) | relative viability ([2]; first compound 1 µM) | relative viability ([3]; first compound 0.01 µM) | relative viability ([3]; first compound 0.03162 µM) | relative viability ([3]; first compound 0.1 µM) | relative viability ([3]; first compound 0.3162 µM) | relative viability ([3]; first compound 1 µM)
1 | NCI-H1666 | 0.984 | 1.03 | 1.03 | 0.504 | 0.49 | 0.509 | 0.581 | 0.577 | 0.584 | 0.583 | 0.851 | 0.859 | 0.847 | 0.732 | 1.05 | 0.951 | 0.957 | 1.02 | 0.911 | 1.01
2 | NCI-H1734 | 0.734 | 0.543 | 0.17 | 0.165 | 0.169 | 0.374 | 0.38 | 0.379 | 0.427 | 0.425 | 0.621 | 0.645 | 0.587 | 0.638 | 0.643 | 0.675 | 0.628 | 0.722 | 0.599 | 0.86
3 | NCI-H1755 | 0.833 | 0.595 | 0.426 | 0.34 | 0.329 | 0.605 | 0.634 | 0.575 | 0.647 | 0.654 | 0.756 | 0.752 | 0.75 | 0.752 | 0.799 | 0.883 | 0.983 | 0.91 | 0.896 | 0.938
4 | NCI-H1793 | 0.695 | 0.352 | 0.17 | 0.117 | 0.18 | 0.3 | 0.387 | 0.38 | 0.31 | 0.432 | – | 0.389 | 0.408 | 0.511 | 0.401 | 0.611 | 0.679 | 0.677 | 0.521 | 0.788
5 | NCI-H1915 | 0.464 | 0.478 | 0.295 | 0.0928 | 0.0626 | 0.363 | 0.39 | 0.363 | 0.34 | 0.357 | 0.286 | 0.307 | 0.294 | 0.313 | 0.295 | 1.07 | 1.06 | 1.05 | 1.01 | 1.1
6 | NCI-H1944 | 0.623 | 0.623 | 0.237 | 0.139 | 0.154 | 0.197 | 0.197 | 0.198 | 0.187 | 0.211 | 0.372 | 0.413 | 0.423 | 0.351 | 0.408 | 0.801 | 0.81 | 0.871 | 0.715 | 0.928
7 | NCI-H1975 | 0.727 | 0.593 | 0.326 | 0.181 | 0.158 | 0.398 | 0.424 | 0.395 | 0.43 | 0.437 | 0.348 | 0.329 | 0.303 | 0.323 | 0.401 | 0.569 | 0.691 | 0.592 | 0.622 | 0.665
8 | NCI-H1993 | 0.665 | 0.425 | 0.456 | 0.489 | 0.416 | 0.55 | 0.49 | 0.515 | 0.553 | 0.521 | 0.551 | 0.549 | 0.624 | 0.57 | 0.482 | 0.706 | 0.65 | 0.62 | 0.655 | 0.664
9 | NCI-H2009 | 0.745 | 0.689 | 0.373 | 0.193 | 0.152 | 0.491 | 0.513 | 0.446 | 0.462 | 0.477 | 0.292 | 0.245 | 0.286 | 0.335 | 0.265 | 1.19 | 1.25 | 1.02 | 1.14 | 1.15
10 | NCI-H2023 | 0.684 | 0.549 | 0.154 | 0.0827 | 0.0741 | 0.43 | 0.422 | 0.455 | 0.398 | 0.43 | 0.584 | 0.645 | 0.677 | 0.556 | 0.512 | 0.568 | 0.691 | 0.592 | 0.529 | 0.548
11 | NCI-H2085 | 0.855 | 0.77 | 0.469 | 0.231 | 0.304 | 0.765 | 0.735 | 0.682 | 0.668 | 0.695 | 0.505 | 0.522 | 0.532 | 0.528 | 0.541 | 0.889 | 0.946 | 0.932 | 0.899 | 1
12 | NCI-H2087 | 0.731 | 0.773 | 0.229 | 0.0706 | 0.124 | 0.42 | 0.543 | 0.397 | 0.398 | 0.498 | 0.219 | 0.203 | 0.201 | 0.179 | 0.244 | 1.1 | 1.1 | 1.07 | 1.01 | 1.48
13 | NCI-H2126 | 0.8 | 0.832 | 0.243 | 0.218 | 0.177 | 0.52 | 0.532 | 0.508 | 0.525 | 0.557 | 0.541 | 0.567 | 0.563 | 0.537 | 0.598 | 0.759 | 0.81 | 0.752 | 0.71 | 0.734
14 | NCI-H2170 | 0.787 | 0.736 | 0.159 | 0.144 | 0.175 | 0.412 | 0.432 | 0.402 | 0.404 | 0.461 | 0.884 | 0.934 | 0.93 | 0.654 | 0.892 | 0.772 | 0.839 | 0.777 | – | 0.789
15 | NCI-H2228 | 0.823 | 0.468 | 0.106 | 0.134 | 0.0804 | 0.301 | 0.345 | 0.328 | 0.324 | 0.296 | 0.348 | 0.63 | 0.538 | 0.285 | 0.571 | 0.595 | 0.81 | 0.555 | 0.733 | 0.807
16 | NCI-H2347 | 0.509 | 0.591 | 0.456 | 0.436 | 0.336 | 0.413 | 0.432 | 0.514 | 0.521 | 0.395 | 0.353 | 0.283 | 0.296 | 0.302 | 0.26 | 0.992 | 1 | 1.07 | 1.07 | 1.11
